Assay results published in patent US20220288057A1, “CONJOINT THERAPY FOR TREATING SEIZURE DISORDERS” (XENON PHARMACEUTICALS INC., priority 2021, published 2022).
Where “and” joins values, the source holds several entries; their conditions need not be identical. Equal values may be shown once. Read-outs that look alike come from different tables or passages of the source.

What was measured:
in vivo = details: mouse
[1] = tested on: tonic hindlimb seizure following corneal stimulation in CF-1 mice; experiment: Mouse maximal electroshock (MES) assay, 60 Hz 50 mA corneal stimulation; assay type: in vivo; details: for IC50: Mus musculus
Experimental: The interaction of Compound A with other ASMs was evaluated after oral dosing in the mouse maximal electroshock (MES) assay to determine whether some combinations were favorable or unfavorable. Efficacy was quantified by calculating the fraction of animals with a tonic hindlimb seizure following corneal stimulation. Compound Preparation: Compound A was initially solubilized in DMSO. This solution was then added into a 0.5% methyl cellulose solution to create a more even and less aggregated compound suspension. Serial dilutions were prepared from the tube with the highest concentration of Compound A and the compound suspensions were further vortexed prior to animal dosing. The final concentration of DMSO was 5%, an amount with no apparent toxicity or neuroprotection in the MES assay. […] Animals: Adult male CF-1 albino mice (25-35 g) purchased from Harlan-Envigo were used. The mice were housed four per cage and had access to filtered water and chow ad libidum, throughout the experiment. MES Assay: Compounds were administered orally by gavage before testing unless indicated otherwise. During MES testing, a 60-Hz alternating current (50 mA) was delivered for 0.2 seconds through corneal electrodes to the mice. A drop of 0.5% Alcaine solution was placed on the eye prior to current delivery. The electrodes were subsequently placed gently onto the eyes of the animal and the electrical shock was initiated by triggering through a foot-pedal activator. The animals were restrained by hand and gently released as the shock was delivered and the seizure commenced. Animals were monitored for hind limb tonic extension as the end point for this test. Statistical analysis: All statistics were calculated using Prism version 7 software (Graphpad Software). The method used for each experiment is indicated in the results section. Concentration-response curves were calculated as best fits to the equation […] where X was the log of plasma concentration. Unless indicated otherwise, bottom was constrained to be 0. Top was constrained to be the value determined experimentally by vehicle control measurements. Compound A Dose Response: […]

[2] = Plasma and brain concentrations in 6 Hz studies (LC-MS/MS); assay type: in vivo, mouse
Experimental: Sample Collection and Preparation: Mice were anesthetized by isoflurane inhalation (TECH-018) until they reached a surgical plane of anesthesia. Then a syringe (1 mL syringe with a 22 gauge needle) was inserted under the sternum into the heart (TECH-031). Approximately 0.5 mL of blood was collected, deposited into a K2EDTA tube, and stored on ice. Animals were then euthanized by cervical dislocation (TECH-018). Brains were removed, placed into a pre-weighed vial, and snap frozen on dry ice. At the end of the sample collection, blood was centrifuged at 4000 rpm for 10 minutes at 4° C., and the plasma pipetted into a labeled tube. All samples were stored in a −80° C. freezer until bioanalysis (8 days after sample collection for Studies 3A and 3B; 20 days after sample collection for Study 3C).
Plasma and Tissue Sample Analysis: Bead mill polypropylene tubes containing weighed brain tissues were thawed at room temperature and 3 mL of homogenization solvent (water:acetonitrile (1:1, v:v)) was added. The tubes were placed in the Bead Mill Homogenizer (Bead Ruptor Elite Model, Omni International) and shaken at a velocity of 3.70 m/s for a single cycle lasting 30 seconds. The homogenized tube was centrifuged at 4000 rpm for 20 minutes, the supernatant was transferred to a 1.5 mL Eppendorf tube, and stored frozen at −80° C. until analysis. All samples including plasma and brain homogenate extracts (including calibration and quality control (QC) samples prepared in K2EDTA rat plasma), were extracted by protein precipitation. […] The samples in the 1.5 mL tubes were vortex mixed and then centrifuged for 20 minutes at 13,000 rpm. Fifty microliters of the supernatant was mixed with 150 μL of water/acetonitrile (1:1) in a 96 well plate which was centrifuged post mixing for 20 minutes at 4000 rpm, and was then ready for analysis by liquid chromatography tandem mass spectrometry (LC-MS/MS).
Samples were analyzed by a research-grade LC-MS/MS method as follows: […]

[3] = Compound A 1 mg/kg PO, 0.5 h before assay
[4] = Compound A 1 mg/kg PO, 2 h before assay
[5] = Compound A 2 mg/kg PO, 0.5 h before assay
[6] = Compound A 2 mg/kg PO, 2 h before assay
[7] = Compound A 4 mg/kg PO, 0.5 h before assay
[8] = Compound A 4 mg/kg PO, 2 h before assay
[9] = Compound A 8 mg/kg PO, 0.5 h before assay
[10] = Compound A 8 mg/kg PO, 2 h before assay

Cc1cc(N2CCc3cc(F)ccc3C2)cc(C)c1NC(=O)CC(C)(C)C [Compound A, N-[4-(6-fluoro-3,4-dihydro-1H-isoquinolin-2-yl)-2,6-dimethylphenyl]-3,3-dimethylbutanamide]
concentration at 2 h (in vivo): 30 nM and 11.1 ng/mL | fraction of animals without tonic seizures ([1]; Compound A 0.25 mg/kg PO 2 h alone (phenytoin study)): 0/8 | fraction of animals without tonic seizures ([1]; Compound A 0.75 mg/kg PO 2 h alone (phenytoin study)): 2/8 | reduction of the fraction with tonic seizures ([1]; Compound A 1 mg/kg): 26.7% | maximum % seizures of fitted curve, reflecting efficacy of Compound A alone ([1]; Compound A 1 mg/kg PO 2 h): 73.3% | number of mice without tonic seizures/total ([1]; Compound A 1 mg/kg PO 2 h + Vehicle IP 0.5 h (valproic acid study)): 4/15 | fraction of mice without tonic seizures ([1]; Compound A 1 mg/kg PO 2 h alone (levetiracetam study)): 2/11 | fraction of animals without tonic seizures ([1]; Compound A 1 mg/kg PO 2 h alone (phenytoin study)): 2/8 | number of mice with tonic seizures/total number tested [1, 3]: 4/7 | percentage of mice protected from hindlimb tonic extensor component [1, 3]: 42.9% | number of mice with tonic seizures/total number tested [1, 4]: 5/7 | percentage of mice protected from hindlimb tonic extension [1, 4]: 28.6% | number of mice with tonic seizures/total number tested [1, 5]: 2/7 | percentage of mice protected from hindlimb tonic extensor component [1, 5]: 71.4% | number of mice with tonic seizures/total number tested [1, 6]: 4/7 | percentage of mice protected from hindlimb tonic extension [1, 6]: 42.9% | fraction of animals without tonic seizures ([1]; Compound A 2.5 mg/kg PO 2 h alone (phenytoin study)): 4/8 | number of mice with tonic seizures/total number tested [1, 7]: 1/7 | percentage of mice protected from hindlimb tonic extensor component [1, 7]: 85.7% | number of mice with tonic seizures/total number tested [1, 8]: 2/7 | percentage of mice protected from hindlimb tonic extension [1, 8]: 71.4% | number of mice with tonic seizures/total number tested [1, 9]: 3/7 | percentage of mice protected from hindlimb tonic extensor component [1, 9]: 71.4% | number of mice with tonic seizures/total number tested [1, 10]: 1/7 | percentage of mice protected from hindlimb tonic extension [1, 10]: 85.7% | fraction of mice without tonic seizures ([1]; Compound A […] PO 2 h alone (levetiracetam study)): 3/8 | IC50 ([1]; Compound A PO alone, data 2 hours after dosing, read-out: IC50 based upon brain concentration (inhibition of tonic seizures)): 275 nM | IC50 ([1]; Compound A PO alone, data 2 hours after dosing, read-out: IC50 based upon plasma concentration (inhibition of tonic seizures)): 154 nM | IC50 ([1]; Compound A alone (phenytoin study), read-out: IC50 for Compound A (inhibition of tonic seizures, plasma concentration)): 147 nM | fold higher brain concentration of Compound A in Study 3C compared to Study 3B ([2]; 1 hour post dosing): 11 fold | fold higher plasma concentration of Compound A in Study 3C compared to Study 3B ([2]; 1 hour post dosing): 12 fold | concentration at 1 h ([2]; CF-1, mouse, brain, po, 1 mg/kg, Study 3A, Compound A 1 mg/kg PO, 1 h, read-out: Brain): 90 nM | concentration at 1 h ([2]; CF-1, mouse, brain, po, 3 mg/kg, Study 3A, Compound A 3 mg/kg PO, 1 h, read-out: Brain): 260 nM | concentration at 1 h ([2]; CF-1, mouse, brain, po, 4 mg/kg, Study 3B, Compound A 4 mg/kg PO 1 h alone, read-out: Brain): 30 ± 20 nM | concentration at 1 h ([2]; CF-1, mouse, brain, po, 4 mg/kg, Study 3C, Compound A 4 mg/kg PO 1 h alone, read-out: Brain): 410 ± 230 nM | concentration at 1 h ([2]; CF-1, mouse, brain, po, 5 mg/kg, Study 3A, Compound A 5 mg/kg PO, 1 h, read-out: Brain): 290 nM | concentration at 1 h ([2]; CF-1, mouse, brain, po, 8 mg/kg, Study 3A, Compound A 8 mg/kg PO, 1 h, read-out: Brain): 700 ± 410 nM | concentration at 1 h ([2]; CF-1, mouse, plasma, po, 1 mg/kg, Study 3A, Compound A 1 mg/kg PO, 1 h, read-out: Plasma): 40 nM | concentration at 1 h ([2]; CF-1, mouse, plasma, po, 3 mg/kg, Study 3A, Compound A 3 mg/kg PO, 1 h, read-out: Plasma): 150 nM | concentration at 1 h ([2]; CF-1, mouse, plasma, po, 4 mg/kg, Study 3B, Compound A 4 mg/kg PO 1 h alone, read-out: Plasma): 14 ± 9 nM | concentration at 1 h ([2]; CF-1, mouse, plasma, po, 4 mg/kg, Study 3C, Compound A 4 mg/kg PO 1 h alone, read-out: Plasma): 167 ± 89.7 nM | concentration at 1 h ([2]; CF-1, mouse, plasma, po, 5 mg/kg, Study 3A, Compound A 5 mg/kg PO, 1 h, read-out: Plasma): 180 nM | concentration at 1 h ([2]; CF-1, mouse, plasma, po, 8 mg/kg, Study 3A, Compound A 8 mg/kg PO, 1 h, read-out: Plasma): 470 ± 290 nM | fold higher concentrations of Compound A in plasma and brain in Study 3C than in Study 3B ([2]; Compound A 4 mg/kg PO, 1 h): more than 10 fold | Plasma ([2]; Study 3A, Compound A 8 mg/kg PO, 1 h, 8 mg/kg): 0.47 µM | concentration at 1 h ([2]; Study 3A, Compound A 8 mg/kg PO, 1 h, 8 mg/kg, read-out: Brain): 700 nM | Plasma ([2]; Study 3B, Compound A 4 mg/kg PO 1 h alone, 4 mg/kg): 0.01 ± 0.01 µM | Plasma ([2]; Study 3B, Compound A 4 mg/kg PO 1 h alone, listed as Cmpd A, 4 mg/kg): 0.01 µM | concentration at 1 h ([2]; Study 3B, Compound A 4 mg/kg PO 1 h alone, listed as Cmpd A, 4 mg/kg, read-out: Brain): 30 nM | Plasma ([2]; Study 3C, Compound A 4 mg/kg PO 1 h alone, 4 mg/kg): 0.17 µM | concentration at 1 h ([2]; Study 3C, Compound A 4 mg/kg PO 1 h alone, 4 mg/kg, read-out: Brain): 410 nM | concentration at 1 h ([2]; mouse, brain, oral, Studies 3B+3C combined, analyte Compound A, 4 mg/kg PO + Levetiracetam 300 mg/kg IP, read-out: Brain): 210 nM | concentration at 1 h ([2]; mouse, brain, oral, Study 3B, analyte Compound A, 4 mg/kg PO + Levetiracetam 300 mg/kg IP, read-out: Brain): 40 nM | concentration at 1 h ([2]; mouse, brain, oral, Study 3C, analyte Compound A, 4 mg/kg PO + Levetiracetam 300 mg/kg IP, read-out: Brain): 383 nM | concentration at 1 h ([2]; mouse, brain, po, 4 mg/kg, Studies 3B+3C combined, Compound A 4 mg/kg PO 1 h alone, read-out: Brain): 220 nM | concentration at 1 h ([2]; mouse, brain, po, 4 mg/kg, Study 3B, Compound A 4 mg/kg PO 1 h alone, read-out: Brain): 30 ± 20 nM | concentration at 1 h ([2]; mouse, brain, po, 4 mg/kg, Study 3C, Compound A 4 mg/kg PO 1 h alone, read-out: Brain): 410 ± 230 nM | concentration at 1 h ([2]; mouse, plasma, oral, Studies 3B+3C combined, analyte Compound A, 4 mg/kg PO + Levetiracetam 300 mg/kg IP, read-out: Plasma): 90 nM | concentration at 1 h ([2]; mouse, plasma, oral, Study 3B, analyte Compound A, 4 mg/kg PO + Levetiracetam 300 mg/kg IP, read-out: Plasma): 20 nM | concentration at 1 h ([2]; mouse, plasma, oral, Study 3C, analyte Compound A, 4 mg/kg PO + Levetiracetam 300 mg/kg IP, read-out: Plasma): 170 nM | concentration at 1 h ([2]; mouse, plasma, po, 4 mg/kg, Studies 3B+3C combined, Compound A 4 mg/kg PO 1 h alone, read-out: Plasma): 100 nM | concentration at 1 h ([2]; mouse, plasma, po, 4 mg/kg, Study 3B, Compound A 4 mg/kg PO 1 h alone, read-out: Plasma): 14 ± 9 nM | concentration at 1 h ([2]; mouse, plasma, po, 4 mg/kg, Study 3C, Compound A 4 mg/kg PO 1 h alone, read-out: Plasma): 170 ± 90 nM
